# Patent US20220281866A1, “5,8-DISUBSTITUTED-[1,2,4]TRIAZOLO[1,5-A]PYRIDINYL AND 5,8-DISUBSTITUTED-IMIDAZO[1,2-A]PYRIDINE DERIVATIVES USEFUL AS INHIBITORS OF ENTEROPEPTIDASE” (Janssen Pharmaceutica NV, priority 2019, published 2022)
# Assays:
# [1] = molecular target: T1, Recombinant full-length human EP (Enteropeptidase) (Homo sapiens, UniProt P98073); experiment: In vitro inhibition potencies against Enteropeptidase (EP), fluorescent peptide GDDDDK-naphthylamine substrate; format: biochemical; settings: 300 μM substrate, 1.25 nM EP; for inhibition at 0.1 µM: compound 0.1 μM; for inhibition at 1 µM: compound 1 μM; for inhibition at 10 µM: compound 10 μM; for kinact/KI: 12-point dose-dependence, time-dependent inhibition, duplicate dilutions, read-out: kinact/KI^App
# T1 construct: Recombinant full-length human EP (PeproTech, Cat #450-48C); purchased PeproTech 450-48C
# Protocol: In vitro inhibition potencies against Enteropeptidase (EP) Recombinant full-length human EP (PeproTech, Cat #450-48C) was used in this biochemical assay, with a quenched fluorescent labeled peptide GDDDDK-naphthylamine (NA) (Sigma, Cat #G5261) as the substrate in a buffer of 50 mM Tris-HCl pH 7.4, 200 mM NaCl and 0.01% Triton X-100. The enzyme activity was measured by following the formation of the cleavage product […](NA) by monitoring the fluorescence intensity (FI) at excitation/emission wavelengths of 340/410 nm. The steady-state kinetic characterization studies yielded an average of KM to be 412±22 μM and the apparent turnover number kcat^app of 11.8±0.4 s^−1 (N=2).
# Compound inhibition studies were carried out under the conditions of 300 μM substrate and 1.25 nM EP. Reaction progress curves were collected by reading the FI at 340/410 nm continuously for 1 hour at an interval of 1 minute.
# To screen compounds of formula (I), inhibition was studied at 4 different compound concentrations of 10 μM, 1 μM, 0.1 μM and 0.01 μM. Initial velocity of the reaction was determined, and percent of inhibition was calculated by comparing to the reaction in the absence of compound.
# Accurate measurements of the inhibition potencies of selected compounds were studied in a 12-point dose-dependence fashion. […] Compound potency was measured by determining the inactivation rate constant (kobs) following the reaction change from the initial velocity vi to the steady-state velocity vs at various compound concentrations. The inactivation rate constants (kobs), were derived by fitting the reaction progress curves to eq. 1.
# where YT is the detection signal of the reaction at time t, vi and vs are the initial and the steady-state velocities of the reaction, t is the reaction time. Y0 is the background signal (when t=0).
# Compound binding mechanism was shown by plotting kobs˜[compound]. Hyperbolic fitting to eq. 2
# conforms to a two-step binding mechanism as shown in Scheme BIO-1.
# The plateau of the curve is the forward step rate constant of the isomerization step k3, KI^app is the inhibitor concentration that leads to half-maximal rate of inhibition of enzyme under the assay conditions. Compound inhibition potency was reported by the value of k3/KI^app.
# A linear dependence of eq.3
# indicates a one-step binding mechanism as shown in Scheme BIO-2
# Slope of the linear fit gives the second-order rate constant of the compound binding k1, which is used to represent the compound inhibition potency.
# (§1) Representative compounds of the present invention were tested according to the procedures as described in Biological Example 1 and Biological Example 2 above, with results as listed in Table 2 and Table 3, below. Results are reported as the %-inhibition (% Inh) or Kinact/KI value. Variability for the functional assay was typically within 20%. For the column headed Kinact/KI the listed measurement is the result of duplicate dilutions.
# Bovine trypsin = molecular target: T2, Bovine trypsin (Bos taurus, UniProt P00760); experiment: Biochemical Assay of Trypsin (T), H-D-CHA-AR-AMC substrate; settings: 15 μM substrate, 0.025 nM Trypsin; for inhibition at 0.1 µM: compound 0.1 μM; for inhibition at 1 µM: compound 1 μM; for inhibition at 10 µM: compound 10 μM; for kinact/KI: 12-point dose-dependence, time-dependent inhibition, duplicate dilutions, read-out: Kinact/KI^App
# T2 construct: purchased Sigma-Aldrich T1426
# T2 sequence (P00760 24-246): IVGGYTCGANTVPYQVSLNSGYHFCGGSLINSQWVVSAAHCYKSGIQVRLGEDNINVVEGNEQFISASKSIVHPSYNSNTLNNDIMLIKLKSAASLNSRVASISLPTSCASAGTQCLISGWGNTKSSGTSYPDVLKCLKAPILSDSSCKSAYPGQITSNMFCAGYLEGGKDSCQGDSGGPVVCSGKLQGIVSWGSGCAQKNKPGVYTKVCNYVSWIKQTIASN
# Protocol: Bovine trypsin was purchased from Sigma-Aldrich (Cat No. T1426), and 7-amino-4-methylcoumarin (AMC) conjugated peptide H-D-cyclohexylalanine (D-CHA)-AR-AMC was used as the substrate in the assay. The protease activity of trypsin was followed by measuring AMC production by the emission fluorescence intensity of AMC at 460 nm with the excitation at 375 nm, in the same assay buffer as used in the EP assay. The enzyme kinetic characterization studies yielded an average of KM to be 3.9±0.5 μM and the apparent turnover number kcat^app of 33.8±0.4 s^−1 (N=2).
# Studies of compound inhibition against T were carried out under the conditions of 15 μM substrate and 0.025 nM Trypsin. Reaction progress curves were collected by reading the FI at 375/460 nm continuously for 1 hour at an interval of 1 minute. Similar to the procedure for Enteropeptidase described above, compounds of formula (I) were screened against Trypsin at 4 different concentrations to obtain the percent of inhibition at 10 μM, 1 μM, 0.1 μM and 0.01 μM, and accurate potencies of selected compounds against Trypsin were derived from detailed 12-point dose-dependence studies for time-dependent inhibitors.
# as §1
# T1 sequence (P98073 whole entry): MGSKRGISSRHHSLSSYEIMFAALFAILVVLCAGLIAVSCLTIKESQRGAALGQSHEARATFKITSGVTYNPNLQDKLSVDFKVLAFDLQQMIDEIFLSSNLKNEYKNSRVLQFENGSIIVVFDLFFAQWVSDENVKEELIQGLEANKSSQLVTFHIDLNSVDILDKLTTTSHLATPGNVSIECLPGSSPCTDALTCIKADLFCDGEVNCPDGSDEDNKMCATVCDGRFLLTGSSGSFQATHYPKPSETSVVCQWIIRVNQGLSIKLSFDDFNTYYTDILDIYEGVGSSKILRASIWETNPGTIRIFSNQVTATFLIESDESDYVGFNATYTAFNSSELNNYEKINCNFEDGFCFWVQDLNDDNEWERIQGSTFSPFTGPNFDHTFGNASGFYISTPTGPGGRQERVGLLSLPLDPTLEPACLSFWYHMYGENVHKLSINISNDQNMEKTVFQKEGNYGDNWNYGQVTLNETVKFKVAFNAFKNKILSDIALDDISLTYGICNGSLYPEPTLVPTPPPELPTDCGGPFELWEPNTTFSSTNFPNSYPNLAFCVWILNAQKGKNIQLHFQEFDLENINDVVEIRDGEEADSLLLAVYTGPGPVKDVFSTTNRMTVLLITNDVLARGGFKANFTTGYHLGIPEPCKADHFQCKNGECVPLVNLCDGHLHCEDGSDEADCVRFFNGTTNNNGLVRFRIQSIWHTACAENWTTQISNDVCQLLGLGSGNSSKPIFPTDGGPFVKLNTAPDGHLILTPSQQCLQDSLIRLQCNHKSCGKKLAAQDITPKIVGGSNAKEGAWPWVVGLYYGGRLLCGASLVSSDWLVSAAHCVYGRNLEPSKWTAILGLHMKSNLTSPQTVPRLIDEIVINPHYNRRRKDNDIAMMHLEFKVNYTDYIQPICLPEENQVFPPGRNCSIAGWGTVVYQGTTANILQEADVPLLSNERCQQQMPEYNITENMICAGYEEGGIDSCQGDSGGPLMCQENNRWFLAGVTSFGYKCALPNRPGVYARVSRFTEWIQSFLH
Structure (SMILES),inhibition at 0.1 µM [1],inhibition at 1 µM [1],inhibition at 10 µM [1],inhibition at 0.1 µM (Bovine trypsin),inhibition at 1 µM (Bovine trypsin),inhibition at 10 µM (Bovine trypsin),kinact/KI [1],kinact/KI (Bovine trypsin)
"CNC(=N)c1ccc(C(=O)Oc2ccc(CC(=O)O)n3ncnc23)cc1 [Compound 33, 2-(8-(4-(N-methylcarbamimidoyl)benzoyloxy)-[1,2,4]triazolo[1,5-a]pyridin-5-yl)acetic acid]",-0.8%,11.3%,52.3%,5.7%,8.7%,66.5%,–,–
"CNC(=N)Nc1ccc(C(=O)Oc2ccc(CC(=O)O)n3ncnc23)cc1 [Compound 34, 2-(8-(4-(3-methylguanidino)benzoyloxy)-[1,2,4]triazolo[1,5-a]pyridin-5-yl)acetic acid]",15.3%,80.1%,97.9%,9.6%,57.1%,97.7%,–,–
"CN(C(=N)N)c1ccc(C(=O)Oc2ccc(CC(=O)O)n3ncnc23)cc1 [Compound 35, 2-(8-(4-(1-methylguanidino)benzoyloxy)-[1,2,4]triazolo[1,5-a]pyridin-5-yl)acetic acid]",40.5%,93.8%,99.3%,31.4%,89.2%,98.9%,–,–
"CONC(=N)c1ccc(C(=O)Oc2ccc(CC(=O)O)n3ncnc23)cc1 [Compound 36, 2-(8-(4-(N-methoxycarbamimidoyl)benzoyloxy)-[1,2,4]triazolo[1,5-a]pyridin-5-yl)acetic acid]",2.4%,9.1%,34%,-3.1%,-3.3%,18.2%,–,–
"CC(=N)Nc1ccc(C(=O)Oc2ccc(CC(=O)O)n3ncnc23)cc1 [Compound 37, 2-(8-(4-acetimidamidobenzoyloxy)-[1,2,4]triazolo[1,5-a]pyridin-5-yl)acetic acid]",47.8%,99.6%,100%,11.5%,68%,99.7%,–,–

# Further lines, results first:
inhibition at 0.1 µM [1],inhibition at 1 µM [1],inhibition at 10 µM [1],inhibition at 0.1 µM (Bovine trypsin),inhibition at 1 µM (Bovine trypsin),inhibition at 10 µM (Bovine trypsin),kinact/KI [1],kinact/KI (Bovine trypsin),Structure (SMILES)
10.5%,57.9%,93.2%,10.9%,58.3%,93%,–,–,"N=C1NCCN1c1ccc(C(=O)Oc2ccc(CC(=O)O)n3ncnc23)cc1 [Compound 32, 2-(8-(4-(2-iminoimidazolidin-1-yl)benzoyloxy)-[1,2,4]triazolo[1,5-a]pyridin-5-yl)acetic acid]"
-1.6%,1.9%,13.6%,-2.1%,2.5%,35.8%,–,–,"N#CNC(=N)c1ccc(C(=O)Oc2ccc(CC(=O)O)n3ncnc23)cc1 [Compound 38, 2-(8-(4-(N-cyanocarbamimidoyl)benzoyloxy)-[1,2,4]triazolo[1,5-a]pyridin-5-yl)acetic acid]"
0.5%,12.2%,51.8%,1.6%,2.8%,25.5%,–,–,"N=C(NN)c1ccc(C(=O)Oc2ccc(CC(=O)O)n3ncnc23)cc1 [Compound 39, 2-(8-(4-(hydrazinyl(imino)methyl)benzoyloxy)-[1,2,4]triazolo[1,5-a]pyridin-5-yl)acetic acid]"
-10.7%,-10.1%,-10.8%,-8%,-0.4%,10.1%,–,–,"C/C(=N\O)Nc1ccc(C(=O)Oc2ccc(CC(=O)O)n3ncnc23)cc1 [Compound 40, (E)-2-(8-(4-(N′-hydroxyacetimidamido)benzoyloxy)-[1,2,4]triazolo[1,5-a]pyridin-5-yl)acetic acid]"
62.3%,98.5%,99.8%,52.9%,99.6%,100%,52800 M⁻¹ s⁻¹,59400 M⁻¹ s⁻¹,"C#CCOCCOCC#Cc1cc(NC(=N)N)ccc1C(=O)Oc1ccc(CC(=O)O)n2ncnc12 [Compound 42, 2-(8-((4-guanidino-2-(3-(2-(prop-2-yn-1-yloxy)ethoxy)prop-1-yn-1-yl)benzoyl)oxy)-[1,2,4]triazolo[1,5-a]pyridin-5-yl)acetic acid]"
56.5%,99.9%,99.9%,76.1%,99.5%,100%,12300 M⁻¹ s⁻¹,40100 M⁻¹ s⁻¹,"C#CCOCC#Cc1cc(NC(=N)N)ccc1C(=O)Oc1ccc(CC(=O)O)n2ncnc12 [Compound 43, 2-(8-((4-Guanidino-2-(3-(prop-2-yn-1-yloxy)prop-1-yn-1-yl)benzoyl)oxy)-[1,2,4]triazolo[1,5-a]pyridin-5-yl)acetic acid]"
